# “Also recorded” adds a separate entry of the source.
# Columns and labels:
# Type in all cases: cell-based
# Malassezia restricta [1] = test: Modified disc diffusion assay with living culture (Example 2); conditions: M. restricta lawn; discs soaked with 15 ul exponentially growing Acetobacter culture or ketoconazole 1 mg/mL in DMSO; 5 days incubation
# Experimental: (§1) FIG. 1|Inhibition assays of M. restricta and M. globose by growth of Acetobacter fabarum. Discs were soaked with ketoconazole (1 mg/ml in DMSO) or exponentially growing Acetobacter fabarum culture and placed on agar plates containing a soft layer inoculated with a single culture of the different Malassezia species to be tested. In the upper panel, inhibition of Malassezia globosa is shown; in the bottom panel, Malassezia restricta is shown.
# (§2) In order to identify strains whose growth inhibits Malassezia, inhibition assays were performed using a modified disc diffusion method. This method is similar to the classical disk diffusion method that consists in depositing discs imbibed with potential inhibitory substances on Petri plates containing a strain of interest, except that the disks were imbibed with a living culture of an Acetobacter strain. After optimal growth of the strain of interest, growth inhibition can be observed around discs on which the growth of inhibitory bacteria has occurred. Ketoconazole (at 1 mg/mL in DMSO) was used as a positive control for Malassezia growth inhibition. The effect of growth of Acetobacter was tested on Malassezia restricta and Malassezia globosa. All Malassezia strains were streaked from −80° C. stock on Modified Leeming and Notman (MLN) agar plates and incubated 10 days at 30° C. […]
# Malassezia globosa [2] = test: as above; conditions: M. globosa lawn; discs soaked with 15 ul exponentially growing Acetobacter culture or ketoconazole 1 mg/mL in DMSO; 5 days incubation
# Experimental: as §1, §2
# Malassezia sympodialis = test: Disc diffusion inhibition assay (Example 1); conditions: M. sympodialis lawn; 6 mm discs soaked with 15 ul supernatant or ketoconazole 1 mg/ml in DMSO; 5 days incubation
# Experimental: (§3) FIG. 1|Inhibition assays of the fungicide ketoconazole as positive control for inhibition and Kazachstania unispora supernatant on M. sympodialis, M. furfur, M. restricta and M. globosa. Inhibition assays were performed using the disc diffusion method. Discs were soaked with ketoconazole (1 mg/ml) or K. unispora supernatant and placed on agar plates containing a soft layer inoculated with a single culture of the different Malassezia species to be tested.
# (§4) In order to identify strains inhibiting Malassezia growth, inhibition assays were performed using the disc diffusion method. This method consists in disposing discs imbibed with potential inhibitory substances on Petri plates containing a strain of interest. After optimal growth of the strain of interest, growth inhibition can be observed around discs soaked with substances having an inhibitory effect. Potential inhibitory substances tested in this experiment are supernatants obtained after individually culturing a collection of fungal and bacterial strains. After an incubation of 10 days in their optimal broth, each culture was centrifuged and the supernatant was filtered and further stored at −20° C. Ketoconazole, a fungicide, was used as a positive control for Malassezia growth inhibition. It was diluted in dimethyl sulfoxide at 1 mg/ml. The collection of supernantants was tested on the following species from the genus Malassezia: Malassezia restricta, Malassezia globosa, Malassezia furfur and Malassezia sympodialis. All strains were streaked from −80° C. stock on Modified Leeming and Notman (MLN) agar plates and incubated 10 days at 30° C. A 5 ml liquid culture of each species was made in MLN broth and incubated at 30° C. for 2 days for M. furfur and M. sympodialis and 5 days for M. restricta and M. globosa. To allow a lawn growth of the different Malassezia strains tested, Petri plates were prepared as follows: a bottom layer of 50 ml Modified Sabouraud Dextrose (MSD) agar was poured in Petri plates. The soft agar, constituting the top layer, was a mix of 12.5 ml MSD agar, 10.5 ml MLN broth and 2 ml of liquid culture. Plates were allowed to dry for one hour, then, 6 mm-diameter Whatman™ discs were soaked with 15 ul of each thawed supernatants and ketoconazole and placed on the soft agar plate containing the solidified Malassezia monoculture layer. After an incubation of 5 days, inhibition area could be easily observed around discs. […] The strain from which the inhibitory supernatant has been produced was further sequenced using the Sanger technology. The internal transcribed spacer (ITS) of this strain was taxonomically assigned to the yeast Kazachstania unispora (BLASTn, 99% identity, 99% query cover, e-value 0.00).
# Malassezia restricta [3] = test: Disc diffusion inhibition assay (Example 1); conditions: M. restricta lawn; 6 mm discs soaked with 15 ul supernatant or ketoconazole 1 mg/ml in DMSO; 5 days incubation
# Experimental: as §3, §4
# Malassezia furfur = test: Disc diffusion inhibition assay (Example 1); conditions: M. furfur lawn; 6 mm discs soaked with 15 ul supernatant or ketoconazole 1 mg/ml in DMSO; 5 days incubation
# Experimental: as §3, §4
# Malassezia globosa [4] = test: Disc diffusion inhibition assay (Example 1); conditions: M. globosa lawn; 6 mm discs soaked with 15 ul supernatant or ketoconazole 1 mg/ml in DMSO; 5 days incubation
# Experimental: as §3, §4
compound,measurement,setting,value
CC(=O)N1CCN(c2ccc(OCC3COC(Cn4ccnc4)(c4ccc(Cl)cc4Cl)O3)cc2)CC1 (stereo not drawn) [ketoconazole],growth inhibition (inhibition halo around disc),Malassezia restricta [1],inhibits growth of both Malassezia species tested; also recorded: inhibited both Malassezia restricta and Malassezia globose
same,growth inhibition (inhibition halo around disc),Malassezia globosa [2],inhibits growth of both Malassezia species tested; also recorded: inhibited both Malassezia restricta and Malassezia globose
same,growth inhibition (inhibition halo around disc),Malassezia sympodialis,inhibits growth of all 4 Malassezia species tested; also recorded: inhibited all 4 Malassezia species tested
same,growth inhibition (inhibition halo around disc),Malassezia restricta [3],inhibits growth of all 4 Malassezia species tested; also recorded: inhibited all 4 Malassezia species tested
same,growth inhibition (inhibition halo around disc),Malassezia furfur,inhibits growth of all 4 Malassezia species tested; also recorded: inhibited all 4 Malassezia species tested
same,growth inhibition (inhibition halo around disc),Malassezia globosa [4],inhibits growth of all 4 Malassezia species tested; also recorded: inhibited all 4 Malassezia species tested
